Values joined by “and” are separate entries in the source; they are usually repeats but may differ in a detail not shown here. Equal values may be shown once.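 96-well plates; 48 h exposure; 5 concentrations. Endpoints by linear interpolation between flanking doses. Not reached: highest tested concentration assigned. GI50: concentration for 50% inhibition of growth. At the TGI there is no net growth.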 A value given as a limit tells only on which side of the number the result lay.

One assay relates to SNB-75 CNS. Description: NCI tumour cell line growth inhibition, 48 h.
The molecule `CC(C)C(=O)NS(=O)(=O)c1ccccc1` displayed a TGI greater than 100 µM.
Consider `COC1(OC)CC2C(=O)N(Cc3ccccc3)C1C=C2S(=O)(=O)c1ccccc1` (stereo not drawn), for which the TGI was 93.9 µM.
Same read-out and setting: the same measure for `NC(=O)c1cc(S(=O)(=O)Nc2nnc(-c3ccccc3)c(-c3ccccc3)n2)c(SCc2ccccc2)cc1Cl`: greater than 61.5 µM.
Take `Cc1cc(C)c(/C=C2\C(=O)Nc3ccc(NC(=O)CCCCCCC(=O)NO)cc32)[nH]1`: the GI50 was 0.227 µM and the TGI was greater than 100 µM.
For `C1=C\COCc2cc(ccc2OCCN2CCCC2)Nc2nccc(n2)-c2cccc(c2)COC/1`, the GI50 was 1.64 µM and the TGI was determined as 4.75 µM.
For `CC(=O)[O][Ga]([Br])[O]C(C)=O`, in that order: greater than 100 µM and greater than 100 µM.
`COc1ccc(-c2coc3c4c(ccc3c2=O)OCO4)cc1OC` displayed a TGI greater than 100 µM.
`CC(C)(S)C(N)C(=O)O` (stereo not drawn): the GI50 was greater than 5000 µM and the TGI is greater than 5000 µM.
For `O=C1c2ccccc2-c2c1c1ccccc1c(=O)n2CCCCl`, the GI50 was 8.4 µM and the TGI was 36.6 µM.
With `CN1C(=O)/C(=C/c2c(Cl)n(C)c3ccccc23)c2ccccc21`, the GI50 is 4.51 µM and 1.96 µM; the TGI was 3.62 µM.
`COc1cc2c(OC)cc1CSCc1sc(C)c(c1Br)CSC2` yielded a TGI greater than 100 µM.
Still for that read-out and setting: the same measure for `Cc1cccc(C)c1NC(=O)C(=O)C(C(=O)c1ccccc1-c1ccccc1)C1OC(=O)c2ccccc21` (stereo not drawn): 53.4 µM.
Take `CCOC(=O)/C=C(/C)Sc1cc(O)c2ccccc2c1O`: the GI50 was 2.55 µM and the TGI stood at 6.94 µM.
As to `COC(=O)[C@H]1C=C[C@@H](C)n2c(=O)c3cc4ccccc4cc3c(=O)n21`, the TGI was greater than 100 µM.
Same read-out and setting: under `Cc1nc2sc3c(c2c(=O)[nH]1)CCCC3` stands greater than 100 µM.
Turning to `C#COc1cccc(Nc2c(C#N)cnc3ncc(NC(=O)CCl)cc23)c1`, the GI50 was 45.4 µM and the TGI is greater than 62.5 µM.
Take `C/C(CC(=O)Nc1cccc(Cl)c1C)=N\NC(=O)c1ccncc1`: the TGI is greater than 100 µM.
For the molecule `Cc1cc(NS(=O)(=O)c2ccc(Nc3c4ccccc4nc4c(C(=O)N5CCN(CCO)CC5)ccc(Cl)c34)cc2)no1`, the TGI was greater than 100 µM.
On the same count and under the same terms, the same measure for `CC(C)C(=O)Nc1nc2c(ncn2C2OC(CO)C(O)C2O)c(=O)[nH]1` (stereo not drawn): greater than 100 µM; for `NCCSc1nc(-c2ccccc2)c(-c2ccccc2)o1`: 61.4 µM.
As to `O=C1NC(=NCCc2cccc(Cl)c2)S/C1=C\c1ccc2ncccc2c1`, the GI50 is greater than 25 µM and the TGI is greater than 25 µM.

For a further assay, the system named is MALME-3M melanoma. Kind of assay: NCI tumour cell line growth inhibition, 48 h.
Regarding `CC(C)C(=O)NS(=O)(=O)c1ccccc1`, the TGI is greater than 100 µM.
On the same count and under the same terms, the same measure for `COC1(OC)CC2C(=O)N(Cc3ccccc3)C1C=C2S(=O)(=O)c1ccccc1` (stereo not drawn): 39.6 µM.
With `NC(=O)c1cc(S(=O)(=O)Nc2nnc(-c3ccccc3)c(-c3ccccc3)n2)c(SCc2ccccc2)cc1Cl`, the GI50 is greater than 100 µM and the TGI is greater than 100 µM.
With `Cc1cc(C)c(/C=C2\C(=O)Nc3ccc(NC(=O)CCCCCCC(=O)NO)cc32)[nH]1`, the GI50 was 0.237 µM and the TGI is greater than 27.4 µM.
For `C1=C\COCc2cc(ccc2OCCN2CCCC2)Nc2nccc(n2)-c2cccc(c2)COC/1`, in that order: 2.13 µM and 5.32 µM.
On the same counts, the results for `CC(=O)[O][Ga]([Br])[O]C(C)=O` are greater than 100 µM and greater than 100 µM.
`CC(C)(S)C(N)C(=O)O` (stereo not drawn): the GI50 was 1130 µM; the TGI is 3400 µM and > 100 µM.
`CN1C(=O)/C(=C/c2c(Cl)n(C)c3ccccc23)c2ccccc21`: the GI50 is 7.07 µM.
`COc1cc2c(OC)cc1CSCc1sc(C)c(c1Br)CSC2` registered a TGI greater than 100 µM.
On the same count and under the same terms, the same measure for `Cc1cccc(C)c1NC(=O)C(=O)C(C(=O)c1ccccc1-c1ccccc1)C1OC(=O)c2ccccc21` (stereo not drawn): 33.4 µM.
For `CCOC(=O)/C=C(/C)Sc1cc(O)c2ccccc2c1O`, the GI50 is 1.93 µM and the TGI is 3.71 µM.
`COC(=O)[C@H]1C=C[C@@H](C)n2c(=O)c3cc4ccccc4cc3c(=O)n21` displayed a TGI greater than 100 µM.
Same read-out and setting: under `Cc1nc2sc3c(c2c(=O)[nH]1)CCCC3` stands greater than 100 µM.
With `C#COc1cccc(Nc2c(C#N)cnc3ncc(NC(=O)CCl)cc23)c1`, the GI50 was 55.4 µM and the TGI is greater than 62.5 µM.
For `C/C(CC(=O)Nc1cccc(Cl)c1C)=N\NC(=O)c1ccncc1`, the TGI is greater than 100 µM.
On the same count and under the same terms, under `Cc1cc(NS(=O)(=O)c2ccc(Nc3c4ccccc4nc4c(C(=O)N5CCN(CCO)CC5)ccc(Cl)c34)cc2)no1` stands greater than 100 µM.
The same measure, in the same setting: the same measure for `CC(C)C(=O)Nc1nc2c(ncn2C2OC(CO)C(O)C2O)c(=O)[nH]1` (stereo not drawn): greater than 100 µM; for `NCCSc1nc(-c2ccccc2)c(-c2ccccc2)o1`: greater than 100 µM.
With `O=C1NC(=NCCc2cccc(Cl)c2)S/C1=C\c1ccc2ncccc2c1`, the GI50 was greater than 25 µM and the TGI is greater than 25 µM.

The subject of the next assay is HOP-92 NSCLC. Kind of assay: NCI tumour cell line growth inhibition, 48 h.
With `CC(C)C(=O)NS(=O)(=O)c1ccccc1`, the TGI was greater than 100 µM.
With `COC1(OC)CC2C(=O)N(Cc3ccccc3)C1C=C2S(=O)(=O)c1ccccc1` (stereo not drawn), the TGI came to 54.1 µM.
Take `NC(=O)c1cc(S(=O)(=O)Nc2nnc(-c3ccccc3)c(-c3ccccc3)n2)c(SCc2ccccc2)cc1Cl`: the GI50 was greater than 100 µM and the TGI is greater than 100 µM.
Consider `Cc1cc(C)c(/C=C2\C(=O)Nc3ccc(NC(=O)CCCCCCC(=O)NO)cc32)[nH]1`, for which the GI50 is 0.47 µM and the TGI was greater than 100 µM.
For the molecule `C1=C\COCc2cc(ccc2OCCN2CCCC2)Nc2nccc(n2)-c2cccc(c2)COC/1`, the GI50 was 1.34 µM and the TGI came out at 4.86 µM.
`CC(=O)[O][Ga]([Br])[O]C(C)=O`: the GI50 is greater than 100 µM and the TGI was greater than 100 µM.
As for `COc1ccc(-c2coc3c4c(ccc3c2=O)OCO4)cc1OC`, the TGI is greater than 100 µM.

Source of the values: PubChem BioAssay (NCI).
